Data as given in publication PMC7826463, “Pamiparib dose escalation in Chinese patients with non‐mucinous high‐grade ovarian cancer or advanced triple‐negative breast cancer” (Cancer Medicine, 2020).

System: Chinese patients with advanced HGOC or TNBC
Assay: Safety/tolerability (adverse events per NCI-CTCAE v4.03, DLTs) in phase 1 dose escalation (NCT03333915)
Format: in vivo
Settings: for Discontinued treatment: Adverse event: count (percent)
Text: This phase 1/2, open‐label, multicenter study assessed the safety and antitumor activity of pamiparib in Chinese patients ≥18 years with advanced solid tumors whose disease progressed despite standard therapy or for which there is no standard therapy. Phase 1 was a dose‐escalation study, with a 3 + 3 design, that evaluated the single‐agent safety/tolerability, pharmacokinetic (PK) profile, and preliminary antitumor activity of pamiparib and confirmed the RP2D in Chinese patients (Figure 1). The phase 2 dose‐expansion component of this study is investigating the single‐agent antitumor activity and safety/tolerability of pamiparib.
In phase 1, patients received pamiparib at 20, 40, and 60 mg BID dose levels. The starting dose for pamiparib (20 mg BID) was selected as one‐third of the RP2D (60 mg BID) and one‐fourth of the MTD (80 mg BID), which were determined in the FIH study. […] Safety evaluations, including dose‐limiting toxicities (DLTs), of ≥3 patients completing one cycle of treatment at a specific dose level were required before proceeding to the next cohort with a higher dose level. Patients could continue the study treatment in 21‐day cycles and subsequent cycles at the discretion of the investigator.
The primary objective in phase 1 was to evaluate the safety and tolerability of pamiparib. Safety and tolerability endpoint assessments were based on monitoring of treatment‐emergent adverse events (AEs), in addition to vital signs, electrocardiograms, physical examinations, and clinical laboratory results. The incidence and severity of all AEs and incidence of serious AEs were assessed according to the National Cancer Institute‐Common Terminology Criteria for Adverse Events v4.03.
Approximately 14 to 18 evaluable patients were expected to enroll in the phase 1 part of the study. The safety population included all patients who received ≥1 dose of pamiparib. The PK population included all patients for whom valid pamiparib PK parameters could be estimated. Antitumor activity per RECIST v1.1 was assessed in all evaluable patients. Patients were considered response evaluable if they had measurable disease at baseline per RECIST v1.1 and had ≥1 post‐baseline tumor assessment, unless treatment had been discontinued due to clinical progression or death prior to tumor assessment. The population evaluable for CA‐125 response included patients in the safety population with baseline CA‐125 ≥2 x upper limit of normal.

SMILES: C[C@]12CCCN1CC1=NNC(=O)c3cc(F)cc4[nH]c2c1c34 [pamiparib, Pamiparib]
- Treatment-related adverse event Asthenia, All Grades (20 mg BID (n = 4)): 3 (75.0) n (%)
- Treatment-related adverse event Asthenia, Grade ≥3 (20 mg BID (n = 4)): 0 n (%)
- Treatment-related adverse event Decreased appetite, All Grades (20 mg BID (n = 4)): 3 (75.0) n (%)
- Treatment-related adverse event Decreased appetite, Grade ≥3 (20 mg BID (n = 4)): 0 n (%)
- Treatment-related adverse event Decreased hemoglobin, All Grades (20 mg BID (n = 4)): 0 n (%)
- Treatment-related adverse event Decreased hemoglobin, Grade ≥3 (20 mg BID (n = 4)): 0 n (%)
- Treatment-related adverse event Decreased neutrophil count, All Grades (20 mg BID (n = 4)): 1 (25.0) n (%)
- Treatment-related adverse event Decreased neutrophil count, Grade ≥3 (20 mg BID (n = 4)): 0 n (%)
- Treatment-related adverse event Decreased platelet count, All Grades (20 mg BID (n = 4)): 0 n (%)
- Treatment-related adverse event Decreased platelet count, Grade ≥3 (20 mg BID (n = 4)): 0 n (%)
- Treatment-related adverse event Decreased white blood cell count, All Grades (20 mg BID (n = 4)): 2 (50.0) n (%)
- Treatment-related adverse event Decreased white blood cell count, Grade ≥3 (20 mg BID (n = 4)): 0 n (%)
- Treatment-related adverse event Diarrhea, All Grades (20 mg BID (n = 4)): 0 n (%)
- Treatment-related adverse event Diarrhea, Grade ≥3 (20 mg BID (n = 4)): 0 n (%)
- Treatment-related adverse event Increased GGT, All Grades (20 mg BID (n = 4)): 1 (25.0) n (%)
- Treatment-related adverse event Increased GGT, Grade ≥3 (20 mg BID (n = 4)): 0 n (%)
- Treatment-related adverse event Increased conjugated bilirubin, All Grades (20 mg BID (n = 4)): 1 (25.0) n (%)
- Treatment-related adverse event Increased conjugated bilirubin, Grade ≥3 (20 mg BID (n = 4)): 0 n (%)
- Treatment-related adverse event Nausea, All Grades (20 mg BID (n = 4)): 4 (100.0) n (%)
- Treatment-related adverse event Nausea, Grade ≥3 (20 mg BID (n = 4)): 0 n (%)
- Treatment-related adverse event Prolonged electrocardiogram QT, All Grades (20 mg BID (n = 4)): 1 (25.0) n (%)
- Treatment-related adverse event Prolonged electrocardiogram QT, Grade ≥3 (20 mg BID (n = 4)): 1 (25.0) n (%)
- Treatment-related adverse event Somnolence, All Grades (20 mg BID (n = 4)): 1 (25.0) n (%)
- Treatment-related adverse event Somnolence, Grade ≥3 (20 mg BID (n = 4)): 0 n (%)
- Treatment-related adverse event Tachycardia, All Grades (20 mg BID (n = 4)): 0 n (%)
- Treatment-related adverse event Tachycardia, Grade ≥3 (20 mg BID (n = 4)): 0 n (%)
- Treatment-related adverse event Vomiting, All Grades (20 mg BID (n = 4)): 1 (25.0) n (%)
- Treatment-related adverse event Vomiting, Grade ≥3 (20 mg BID (n = 4)): 0 n (%)
- Discontinued treatment: Adverse event (20 mg BID (n=4)): 0
- Treatment-related adverse event Asthenia, All Grades (40 mg BID (n = 4)): 4 (100.0) n (%)
- Treatment-related adverse event Asthenia, Grade ≥3 (40 mg BID (n = 4)): 0 n (%)
- Treatment-related adverse event Decreased appetite, All Grades (40 mg BID (n = 4)): 3 (75.0) n (%)
- Treatment-related adverse event Decreased appetite, Grade ≥3 (40 mg BID (n = 4)): 0 n (%)
- Treatment-related adverse event Decreased hemoglobin, All Grades (40 mg BID (n = 4)): 1 (25.0) n (%)
- Treatment-related adverse event Decreased hemoglobin, Grade ≥3 (40 mg BID (n = 4)): 0 n (%)
- Treatment-related adverse event Decreased neutrophil count, All Grades (40 mg BID (n = 4)): 3 (75.0) n (%)
- Treatment-related adverse event Decreased neutrophil count, Grade ≥3 (40 mg BID (n = 4)): 0 n (%)
- Treatment-related adverse event Decreased platelet count, All Grades (40 mg BID (n = 4)): 0 n (%)
- Treatment-related adverse event Decreased platelet count, Grade ≥3 (40 mg BID (n = 4)): 0 n (%)
- Treatment-related adverse event Decreased white blood cell count, All Grades (40 mg BID (n = 4)): 3 (75.0) n (%)
- Treatment-related adverse event Decreased white blood cell count, Grade ≥3 (40 mg BID (n = 4)): 0 n (%)
- Treatment-related adverse event Diarrhea, All Grades (40 mg BID (n = 4)): 1 (25.0) n (%)
- Treatment-related adverse event Diarrhea, Grade ≥3 (40 mg BID (n = 4)): 0 n (%)
- Treatment-related adverse event Increased GGT, All Grades (40 mg BID (n = 4)): 1 (25.0) n (%)
- Treatment-related adverse event Increased GGT, Grade ≥3 (40 mg BID (n = 4)): 0 n (%)
- Treatment-related adverse event Increased conjugated bilirubin, All Grades (40 mg BID (n = 4)): 1 (25.0) n (%)
- Treatment-related adverse event Increased conjugated bilirubin, Grade ≥3 (40 mg BID (n = 4)): 0 n (%)
- Treatment-related adverse event Nausea, All Grades (40 mg BID (n = 4)): 3 (75.0) n (%)
- Treatment-related adverse event Nausea, Grade ≥3 (40 mg BID (n = 4)): 0 n (%)
- Treatment-related adverse event Prolonged electrocardiogram QT, All Grades (40 mg BID (n = 4)): 1 (25.0) n (%)
- Treatment-related adverse event Prolonged electrocardiogram QT, Grade ≥3 (40 mg BID (n = 4)): 0 n (%)
- Treatment-related adverse event Somnolence, All Grades (40 mg BID (n = 4)): 1 (25.0) n (%)
- Treatment-related adverse event Somnolence, Grade ≥3 (40 mg BID (n = 4)): 0 n (%)
- Treatment-related adverse event Tachycardia, All Grades (40 mg BID (n = 4)): 1 (25.0) n (%)
- Treatment-related adverse event Tachycardia, Grade ≥3 (40 mg BID (n = 4)): 0 n (%)
- Treatment-related adverse event Vomiting, All Grades (40 mg BID (n = 4)): 1 (25.0) n (%)
- Treatment-related adverse event Vomiting, Grade ≥3 (40 mg BID (n = 4)): 0 n (%)
- Discontinued treatment: Adverse event (40 mg BID (n=4)): 0
- Treatment-related adverse event Asthenia, All Grades (60 mg BID (n = 7)): 5 (71.4) n (%)
- Treatment-related adverse event Asthenia, Grade ≥3 (60 mg BID (n = 7)): 0 n (%)
- Treatment-related adverse event Decreased appetite, All Grades (60 mg BID (n = 7)): 3 (42.9) n (%)
- Treatment-related adverse event Decreased appetite, Grade ≥3 (60 mg BID (n = 7)): 0 n (%)
- Treatment-related adverse event Decreased hemoglobin, All Grades (60 mg BID (n = 7)): 5 (71.4) n (%)
- Treatment-related adverse event Decreased hemoglobin, Grade ≥3 (60 mg BID (n = 7)): 3 (42.9) n (%)
- Treatment-related adverse event Decreased neutrophil count, All Grades (60 mg BID (n = 7)): 4 (57.1) n (%)
- Treatment-related adverse event Decreased neutrophil count, Grade ≥3 (60 mg BID (n = 7)): 2 (28.6) n (%)
- Treatment-related adverse event Decreased platelet count, All Grades (60 mg BID (n = 7)): 3 (42.9) n (%)
- Treatment-related adverse event Decreased platelet count, Grade ≥3 (60 mg BID (n = 7)): 1 (14.3) n (%)
- Treatment-related adverse event Decreased white blood cell count, All Grades (60 mg BID (n = 7)): 5 (71.4) n (%)
